The source made the active and inactive calls. The calls are words filed in the database; no cut-off is given here.
Tested on: not listed separately
Assay: Stabilization of 5'-FAM/3'-TAMRA labeled c-Myc Pu18 G-quadruplex DNA (unknown origin) assessed as change in melting temperature at 1 uM after overnight incubation by FRET assay

Compound	ΔTm
O=C(CCN1CCCC1)Nc1ccc(/C=C2\CCCn3c2nc2cc(NC(=O)CCN4CCCC4)ccc2c3=O)cc1	3.4 °C
O=C(CCN1CCCC1)Nc1ccc(/C=C2\CCn3c2nc2cc(NC(=O)CCN4CCCC4)ccc2c3=O)cc1	8.5 °C

Tested on: not listed separately
Assay: Inhibition of thiazole orange binding to c-Myc Pu27 G-quadruplex DNA (unknown origin) at 10 uM after 30 secs by fluorescence spectrophotometric method

Compound	inhibition
CCN(CC)CCCNC(=O)c1ccc(/C=C2\CCn3c2nc2cc(NCCN4CCCC4)c(F)cc2c3=O)cc1	Active
CCN(CC)CCNC(=O)c1ccc(/C=C2\CCn3c2nc2cc(NCCN4CCCC4)c(F)cc2c3=O)cc1	Active
CCN(CC)CCCNC(=O)c1ccc(/C=C2\CCn3c2nc2cc(NCCCN4CCCC4)c(F)cc2c3=O)cc1	Active
O=C(NCCN1CCCC1)c1ccc(/C=C2\CCn3c2nc2cc(NCCN4CCCC4)c(F)cc2c3=O)cc1	Active
O=C(NCCN1CCCC1)c1ccc(/C=C2\CCn3c2nc2cc(NCCCN4CCCC4)c(F)cc2c3=O)cc1	Active
O=C(NCCCN1CCCC1)c1ccc(/C=C2\CCn3c2nc2cc(NCCCN4CCCC4)c(F)cc2c3=O)cc1	Active

Tested on: not listed separately
Assay: Inhibition of 5'-biotin-labeled c-Myc Pu18 G-quadruplex DNA (unknown origin) interaction with His-tagged NM23-H2 assessed as ratio of Kd for NM23-H2-DNA complex in presence of compound to Kd for […]-DNA complex in absence of compound at 20 uM preincubated with NM23-H2 for 1 hr followed by addition of DNA measured after overnight incubation by ELISA

Compound	Ratio
CCN(CC)CCC(=O)Nc1ccc(/C=C2\CCn3c2nc2cc(N4CCN(C)CC4)c(F)cc2c3=O)cc1	1.4
CCN(CC)CCC(=O)Nc1ccc(/C=C2\CCn3c2nc2cc(N4CCCCC4)c(F)cc2c3=O)cc1	1.4 to 4.3
CCN(CC)CCNC(=O)c1ccc(/C=C2\CCn3c2nc2cc(N4CCN(C)CC4)c(F)cc2c3=O)cc1	2.7
CN1CCN(c2cc3nc4n(c(=O)c3cc2F)CCC/C4=C\c2ccc(NC(=O)CN3CCN(CCO)CC3)cc2)CC1	< 1.4
CN1CCN(c2cc3nc4n(c(=O)c3cc2F)CC/C4=C\c2ccc(C(=O)NCCN3CCCCC3)cc2)CC1	1.4 to 4.3
O=C(CCN1CCCCC1)Nc1ccc(/C=C2\CCn3c2nc2cc(N4CCCCC4)c(F)cc2c3=O)cc1	1.4 to 4.3
CN1CCN(c2cc3nc4n(c(=O)c3cc2F)CCC/C4=C\c2ccc(NC(=O)CCN3CCCC3)cc2)CC1	1.3
CN1CCN(c2cc3nc4n(c(=O)c3cc2F)CC/C4=C\c2ccc(NC(=O)CCN3CCCC3)cc2)CC1	1.6
O=C(CCN1CCCC1)Nc1ccc(/C=C2\CCCn3c2nc2cc(NC(=O)CCN4CCCC4)ccc2c3=O)cc1	2.4
O=C(CCN1CCCC1)Nc1ccc(/C=C2\CCn3c2nc2cc(N4CCCCC4)c(F)cc2c3=O)cc1	1.4 to 4.3
O=C(CCN1CCCC1)Nc1ccc(/C=C2\CCn3c2nc2cc(NC(=O)CCN4CCCC4)ccc2c3=O)cc1	2.5

Organism: Homo sapiens
Assay: Inhibition of NM23-H2 binding to c-Myc promoter DNA in human SiHa cell nuclear extract at 1.3 to 2.6 uM after 4 days by ChIP analysis

Compound	inhibition
O=C(CCN1CCCC1)Nc1ccc(/C=C2\CCn3c2nc2cc(N4CCCCC4)c(F)cc2c3=O)cc1	inactive

Tested on: not listed separately
Assay: Inhibition of thiazole orange binding to c-Myc Pu18 G-quadruplex DNA (unknown origin) at 10 uM after 30 secs by fluorescence spectrophotometric method

Compound	inhibition
CCN(CC)CCCNC(=O)c1ccc(/C=C2\CCn3c2nc2cc(NCCN4CCCC4)c(F)cc2c3=O)cc1	Active
CCN(CC)CCNC(=O)c1ccc(/C=C2\CCn3c2nc2cc(NCCN4CCCC4)c(F)cc2c3=O)cc1	Active
CCN(CC)CCCNC(=O)c1ccc(/C=C2\CCn3c2nc2cc(NCCCN4CCCC4)c(F)cc2c3=O)cc1	Active
O=C(NCCN1CCCC1)c1ccc(/C=C2\CCn3c2nc2cc(NCCN4CCCC4)c(F)cc2c3=O)cc1	Active
O=C(NCCN1CCCC1)c1ccc(/C=C2\CCn3c2nc2cc(NCCCN4CCCC4)c(F)cc2c3=O)cc1	Active
O=C(NCCCN1CCCC1)c1ccc(/C=C2\CCn3c2nc2cc(NCCCN4CCCC4)c(F)cc2c3=O)cc1	Active

Target: T1, Nucleoside diphosphate kinase B (Homo sapiens, UniProt P22392)
Assay: Binding affinity to NT647-labeled His-tagged NM23-H2 (unknown origin) expressed in Escherichia coli BL21(DE3) after 30 mins by microscale thermophoresis method

T1 sequence (P22392 whole entry): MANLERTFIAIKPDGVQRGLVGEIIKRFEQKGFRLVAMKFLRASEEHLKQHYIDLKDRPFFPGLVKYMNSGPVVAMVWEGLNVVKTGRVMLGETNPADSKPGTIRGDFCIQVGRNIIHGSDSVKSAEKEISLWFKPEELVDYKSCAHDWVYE

Compound	Kd
CN1CCN(c2cc3nc4n(c(=O)c3cc2F)CC/C4=C\c2ccc(NC(=O)CCN3CCN(CCO)CC3)cc2)CC1	1.8 µM
O=C(CCN1CCCC1)Nc1ccc(/C=C2\CCCn3c2nc2cc(NC(=O)CCN4CCCC4)ccc2c3=O)cc1	22.1 µM

Target: T1, Nucleoside diphosphate kinase B
Assay: Binding affinity to NT647-labeled His-tagged NM23-H2 (unknown origin) expressed in Escherichia coli BL21(DE3) up to 500 uM after 30 mins by microscale thermophoresis method

Compound	Activity
CN1CCN(c2cc3nc4n(c(=O)c3cc2F)CCC/C4=C\c2ccc(NC(=O)CCN3CCN(CCO)CC3)cc2)CC1	Active
CN1CCN(c2cc3nc4n(c(=O)c3cc2F)CCC/C4=C\c2ccc(NC(=O)CN3CCN(CCO)CC3)cc2)CC1	Active
CN1CCN(c2cc3nc4n(c(=O)c3cc2F)CC/C4=C\c2ccc(NC(=O)CN3CCCC3)cc2)CC1	Active
CN(C)CCNC(=O)c1ccc(/C=C2\CCn3c2nc2cc(N4CCN(C)CC4)c(F)cc2c3=O)cc1	Active
CN1CCN(c2cc3nc4n(c(=O)c3cc2F)CC/C4=C\c2ccc(NC(=O)CN3CCN(CCO)CC3)cc2)CC1	Active
O=C(CCN1CCCC1)Nc1ccc(/C=C2\CCn3c2nc2cc(NC(=O)CCN4CCCC4)ccc2c3=O)cc1	inactive

Tested on: not listed separately
Assay: Inhibition of 5'-biotin-labeled c-Myc Pu18 G-quadruplex DNA (unknown origin) interaction with His-tagged NM23-H2 at 20 uM preincubated with NM23-H2 for 1 hr followed by addition of DNA measured after overnight incubation by ELISA

Compound	inhibition
CN(C)CCCNC(=O)c1ccc(/C=C2\CCn3c2nc2cc(N4CCN(C)CC4)c(F)cc2c3=O)cc1	Active
CCN(CC)CCCNC(=O)c1ccc(/C=C2\CCn3c2nc2cc(NCCN4CCCC4)c(F)cc2c3=O)cc1	Active
CN1CCN(c2cc3nc4n(c(=O)c3cc2F)CC/C4=C\c2ccc(C(=O)NCCN3CCCC3)cc2)CC1	Active
CCN(CC)CCNC(=O)c1ccc(/C=C2\CCn3c2nc2cc(NCCN4CCCC4)c(F)cc2c3=O)cc1	Active
CCN(CC)CCCNC(=O)c1ccc(/C=C2\CCn3c2nc2cc(NCCCN4CCCC4)c(F)cc2c3=O)cc1	Active
CN1CCN(c2cc3nc4n(c(=O)c3cc2F)CCC/C4=C\c2ccc(NC(=O)CCN3CCCCC3)cc2)CC1	Active
CN1CCN(c2cc3nc4n(c(=O)c3cc2F)CC/C4=C\c2ccc(NC(=O)CCN3CCN(CCO)CC3)cc2)CC1	Active
CN1CCN(c2cc3nc4n(c(=O)c3cc2F)CC/C4=C\c2ccc(C(=O)NCCCN3CCCC3)cc2)CC1	Active
CCN(CC)CCNC(=O)c1ccc(/C=C2\CCCn3c2nc2cc(N4CCN(C)CC4)c(F)cc2c3=O)cc1	Active
CN(C)CCNC(=O)c1ccc(/C=C2\CCn3c2nc2cc(N4CCN(C)CC4)c(F)cc2c3=O)cc1	Active
CN1CCN(c2cc3nc4n(c(=O)c3cc2F)CC/C4=C\c2ccc(NC(=O)CCN3CCCC3)cc2)CC1	Active
CN1CCN(c2cc3nc4n(c(=O)c3cc2F)CC/C4=C\c2ccc(NC(=O)CCN3CCCCC3)cc2)CC1	Active
CN1CCN(c2cc3nc4n(c(=O)c3cc2F)CCC/C4=C\c2ccc(C(=O)NCCN3CCCCC3)cc2)CC1	Active
CN1CCN(c2cc3nc4n(c(=O)c3cc2F)CCC/C4=C\c2ccc(C(=O)NCCN3CCCC3)cc2)CC1	Active
CCN(CC)CCC(=O)Nc1ccc(/C=C2\CCCn3c2nc2cc(N4CCN(C)CC4)c(F)cc2c3=O)cc1	Active
CCN(CC)CCCNC(=O)c1ccc(/C=C2\CCn3c2nc2cc(N4CCN(C)CC4)c(F)cc2c3=O)cc1	Active
O=C(NCCN1CCCC1)c1ccc(/C=C2\CCn3c2nc2cc(NCCN4CCCC4)c(F)cc2c3=O)cc1	Active
O=C(NCCN1CCCC1)c1ccc(/C=C2\CCn3c2nc2cc(NCCCN4CCCC4)c(F)cc2c3=O)cc1	Active
CN1CCN(c2cc3nc4n(c(=O)c3cc2F)CC/C4=C\c2ccc(C(=O)NCCCN3CCCCC3)cc2)CC1	Active
CN1CCN(c2cc3nc4n(c(=O)c3cc2F)CC/C4=C\c2ccc(NC(=O)CN3CCN(CCO)CC3)cc2)CC1	Active
O=C(NCCCN1CCCC1)c1ccc(/C=C2\CCn3c2nc2cc(NCCCN4CCCC4)c(F)cc2c3=O)cc1	Active

Organism: Homo sapiens
Assay: Inhibition of NM23-H2 binding to c-Myc promoter DNA in human SiHa cell nuclear extract at 4.85 to 9.7 uM after 4 days by ChIP analysis

Compound	inhibition
CN1CCN(c2cc3nc4n(c(=O)c3cc2F)CC/C4=C\c2ccc(NC(=O)CCN3CCN(CCO)CC3)cc2)CC1	inactive

— ChEMBL document CHEMBL3997802, “Design, Synthesis, and Evaluation of Isaindigotone Derivatives To Downregulate c-myc Transcription via Disrupting the Interaction of NM23-H2 with G-Quadruplex” (J Med Chem, 2017)
